{"source": "paper PMC7413516", "about": "“Antidepressant-like activity and safety profile evaluation of 1H-imidazo[2,1-f]purine-2,4(3H,8H)-dione derivatives as 5-HT1A receptor partial agonists” (PLoS ONE, 2020)", "experiment": "Pharmacokinetic study in mice, plasma and brain structures, LC/MS/MS", "assay_type": "in vivo, Swiss albino mice", "conditions": "0.625 mg/kg i.p.; for Kp: ratio of AUC values", "procedure": "Blood samples from the Swiss albino mice were collected at 0 (pre-dose), 5, 15, 30, 60, 120, 240 and 480 min after a compound administration. The blood samples and brain structures were collected under general anesthesia induced by i.p. injection of 50 mg/kg ketamine plus 8 mg/kg xylazine. The blood samples were taken into heparinized tubes, immediately centrifuged at 1000 × g for 10 min, and plasma was collected. The plasma samples and brain structures were immediately frozen at -30°C and -80°C, respectively.\nThe plasma and tissue sample pretreatment procedure involved acetonitrile precipitation. A 5 μL aliquot of the IS working solution (100 ng/mL) was added to 50 μL of the collected mouse plasma sample, which was then vortex-mixed for 10 seconds. Thereafter, 200 μL of acetonitrile was added, vortexed during 20 min, and then centrifuged (1000 × g, 10 min). The supernatant (100 μL) was then transferred to insert placed in an autosampler vial, and a 10 μL volume of this was injected onto the HPLC column. Tissue samples were thawed before use, and whole hippocampus, striatum and frontal cortex were weighted and placed in a glass mortar and pestle tissue grinder and homogenized with an appropriate amount of phosphate buffer (pH 7.4) in 1:5 ratio. Afterward, 50 μL of tissue homogenates were transferred to new Eppendorf tubes and spiked with 5 μL of the internal standard working solution. All samples were stored on ice during the preparation process. This was followed by procedures like those described above.\nThe LC/ESI-MS/MS experiments were performed on an Applied Biosystems/MDS Sciex (Concord, Ontario, Canada) API 2000 triple quadrupole mass spectrometer equipped with an electrospray (ESI) ionization interface. This instrument was coupled to an Agilent 1100 (Agilent Technologies, Waldbronn, Germany) LC system. Data acquisition and processing were accomplished using Sciex Analyst 1.4.2 data collection and integration software.\nAn XBridge C18 (2.1 x 30 mm, 3.5 μm) analytical column (Waters, Milford, Massachusetts, USA) was used for compound separation. The temperatures of the column thermostat and the autosampler were set at 25°C and 10°C, respectively. The mobile phase consisted of a mixture of acetonitrile with addition of 0.1% formic acid (solvent A) and water with addition of 0.1% formic acid (solvent B) and was set at a flow rate of 0.6 mL/min. Starting amount of solvent A is 10%, isocratic elution from 0 to 3 min, and then gradient up to 90% of solvent A, and maintained to 10 min, and then gradient down to 10% of solvent A, and maintained to 15 min.\nThe ion source parameters were as follows: ion spray voltage: 5500 V; nebulizer gas (gas 1): 20 psi; turbo gas (gas 2): 25 psi; temperature of the heated nebulizer: 400°C; curtain gas: 40 psi; collision gas: 6 psi. Mass spectra were acquired by SRM with precursor/predominant product ion transitions for each analyte. The mass spectral Q1→Q3 transitions monitored for AZ-853, AZ-861 and for IS (nebivolol), were m/z 453.9→235.1; 504.3→285.1 and 406.2→151.1, respectively. The peak widths of precursor and product ions were set to 0.7 full width half-height. Quantification was done via peak area ratio.\nPharmacokinetic parameters were calculated by a non-compartmental approach from the average concentration values, using Phoenix WinNonlin software (Certara, Princeton, NJ 08540 USA). First order elimination rate constant (λz) was calculated by linear regression of time versus log concentration. Next, the area under the mean serum and tissue concentration versus time curve (AUC0→t) was estimated using the log-linear trapezoidal rule (1), where Ci is the plasma concentration measured at t1.\nAUC0→t=∑i=1n((Ci+Ci+1)/2)∙(ti+1−ti). (1)\nArea under the first-moment curve (AUMC0→t) was estimated by calculation of the total area under the first-moment curve using the Eq (2), where Ci is the plasma concentration measured at t1. AUMC0→t=∑i=1n((ti∙Ci+ti+1∙Ci+1)/2)∙(ti+1−ti). […]", "key": {"[1]": {"conditions": "Swiss albino, mouse, frontal cortex, ip, 0.625 mg/kg, read-out: Concentration, frontal cortex (Mean)"}, "[2]": {"conditions": "Swiss albino, mouse, frontal cortex, ip, 0.625 mg/kg, read-out: Concentration, frontal cortex (individual animals)"}}, "note": "“And” between values parts separate entries of the source, which are not always exact repeats. Equal entries are not always repeated. Where two headings read alike, the source gives them in different places.", "data": [{"smiles": "Cn1c(=O)c2c(nc3n(CCCCN4CCN(c5ccccc5F)CC4)ccn23)n(C)c1=O", "note": "[AZ-853, 8-(4-(4-(2-fluorophenyl)piperazin-1-yl)butyl)-1,3-dimethyl-1H-imidazo[2,1-f]purine-2,4(3H,8H)-dione]", "values": [{"measurement": "t0.5", "value": "ca. 1.5 h"}, {"measurement": "t0.5, frontal cortex", "value": 73.8, "unit": "min"}, {"measurement": "t0.5, hippocampus", "value": 140.8, "unit": "min"}, {"measurement": "t0.5, striatum", "value": 74.3, "unit": "min"}, {"measurement": "Cmax, plasma", "setting": "0.625 mg/kg", "value": 23.1, "unit": "ng/mL"}, {"measurement": "t0.5, plasma", "setting": "0.625 mg/kg", "value": "81 min and 81.6 min"}, {"measurement": "Concentration, frontal cortex (individual animals)", "setting": "15 min, 0.625 mg/kg", "value": "252.14 ng/mL and 309.85 ng/mL and 312.66 ng/mL and 273.19 ng/mL and 294.14 ng/mL"}, {"measurement": "Concentration, hippocampus (individual animals)", "setting": "15 min, 0.625 mg/kg", "value": "298.87 ng/mL and 267.61 ng/mL and 299.52 ng/mL and 245.78 ng/mL and 289.53 ng/mL"}, {"measurement": "Concentration, plasma (individual animals)", "setting": "15 min, 0.625 mg/kg", "value": "13.52 ng/mL and 11.72 ng/mL and 14.74 ng/mL and 12.63 ng/mL and 15.85 ng/mL"}, {"measurement": "Concentration, striatum (individual animals)", "setting": "15 min, 0.625 mg/kg", "value": "445.83 ng/mL and 472.52 ng/mL and 361.97 ng/mL and 346.18 ng/mL and 398.36 ng/mL"}, {"measurement": "Concentration, frontal cortex (individual animals)", "setting": "30 min, 0.625 mg/kg", "value": "130.57 ng/mL and 174.17 ng/mL and 183.87 ng/mL and 124.72 ng/mL and 156.16 ng/mL"}, {"measurement": "Concentration, hippocampus (individual animals)", "setting": "30 min, 0.625 mg/kg", "value": "132.11 ng/mL and 120.56 ng/mL and 144.33 ng/mL and 115.85 ng/mL and 113.92 ng/mL"}, {"measurement": "Concentration, plasma (individual animals)", "setting": "30 min, 0.625 mg/kg", "value": "7.23 ng/mL and 6.19 ng/mL and 8.12 ng/mL and 7.41 ng/mL and 8.48 ng/mL"}, {"measurement": "Concentration, striatum (individual animals)", "setting": "30 min, 0.625 mg/kg", "value": "208.14 ng/mL and 240.54 ng/mL and 302.57 ng/mL and 256.75 ng/mL and 253.77 ng/mL"}, {"measurement": "Concentration, frontal cortex (individual animals)", "setting": "60 min, 0.625 mg/kg", "value": "87.55 ng/mL and 56.45 ng/mL and 81.65 ng/mL and 55.78 ng/mL and 58.24 ng/mL"}, {"measurement": "Concentration, hippocampus (individual animals)", "setting": "60 min, 0.625 mg/kg", "value": "35.33 ng/mL and 56.52 ng/mL and 54.16 ng/mL and 46.72 ng/mL and 33.91 ng/mL"}, {"measurement": "Concentration, plasma (individual animals)", "setting": "60 min, 0.625 mg/kg", "value": "2.33 ng/mL and 1.80 ng/mL and 1.95 ng/mL and 1.94 ng/mL and 1.84 ng/mL and 0.83 ng/mL"}, {"measurement": "Concentration, striatum (individual animals)", "setting": "60 min, 0.625 mg/kg", "value": "49.55 ng/mL and 56.86 ng/mL and 68.93 ng/mL and 73.14 ng/mL and 66.26 ng/mL"}, {"measurement": "Concentration, frontal cortex (individual animals)", "setting": "120 min, 0.625 mg/kg", "value": "32.55 ng/mL and 33.75 ng/mL and 20.15 ng/mL and 30.26 ng/mL and 26.34 ng/mL"}, {"measurement": "Concentration, hippocampus (individual animals)", "setting": "120 min, 0.625 mg/kg", "value": "15.62 ng/mL and 13.22 ng/mL and 11.37 ng/mL and 10.24 ng/mL and 11.13 ng/mL"}, {"measurement": "Concentration, plasma (individual animals)", "setting": "120 min, 0.625 mg/kg", "value": "4.86 ng/mL and 4.58 ng/mL and 4.97 ng/mL and 3.54 ng/mL and 3.31 ng/mL"}, {"measurement": "Concentration, striatum (individual animals)", "setting": "120 min, 0.625 mg/kg", "value": "39.45 ng/mL and 31.62 ng/mL and 38.75 ng/mL and 47.66 ng/mL and 39.13 ng/mL"}, {"measurement": "Concentration, frontal cortex (individual animals)", "setting": "240 min, 0.625 mg/kg", "value": "24.26 ng/mL and 26.65 ng/mL and 19.77 ng/mL and 20.56 ng/mL"}, {"measurement": "Concentration, hippocampus (individual animals)", "setting": "240 min, 0.625 mg/kg", "value": "6.95 ng/mL and 9.12 ng/mL and 10.23 ng/mL and 6.87 ng/mL"}, {"measurement": "Concentration, plasma (individual animals)", "setting": "240 min, 0.625 mg/kg", "value": "0.37 ng/mL and 0.35 ng/mL and 0.45 ng/mL and 0.53 ng/mL and 0.33 ng/mL and 0.26 ng/mL"}, {"measurement": "Concentration, striatum (individual animals)", "setting": "240 min, 0.625 mg/kg", "value": "2.35 ng/mL and 3.41 ng/mL and 6.93 ng/mL and 8.25 ng/mL and 6.34 ng/mL"}, {"measurement": "Kp", "setting": "Swiss albino, mouse, frontal cortex, ip, read-out: Brain structure-to-plasma concentration ratio, frontal cortex (FC/P)", "value": 18.1}, {"measurement": "AUC(0-t)", "setting": "Swiss albino, mouse, frontal cortex, ip, read-out: AUC0→t, frontal cortex (converted)", "value": 321, "unit": "ng·h/mL"}, {"measurement": "MRT", "setting": "Swiss albino, mouse, frontal cortex, ip, read-out: MRT, frontal cortex (converted)", "value": 1.5, "unit": "h"}, {"measurement": "concentration at 5 min", "setting": "[1]", "value": 306, "unit": "ng/mL"}, {"measurement": "concentration at 5 min", "setting": "[2]", "value": 268, "unit": "ng/mL"}, {"measurement": "concentration at 15 min", "setting": "Swiss albino, mouse, frontal cortex, ip, 0.625 mg/kg, 15 min, read-out: Concentration, frontal cortex (Mean)", "value": 293, "unit": "ng/mL"}, {"measurement": "concentration at 15 min", "setting": "Swiss albino, mouse, frontal cortex, ip, 0.625 mg/kg, 15 min, read-out: Concentration, frontal cortex (individual animals)", "value": 318, "unit": "ng/mL"}, {"measurement": "concentration at 30 min", "setting": "Swiss albino, mouse, frontal cortex, ip, 0.625 mg/kg, 30 min, read-out: Concentration, frontal cortex (Mean)", "value": 156, "unit": "ng/mL"}, {"measurement": "concentration at 30 min", "setting": "Swiss albino, mouse, frontal cortex, ip, 0.625 mg/kg, 30 min, read-out: Concentration, frontal cortex (individual animals)", "value": 165, "unit": "ng/mL"}, {"measurement": "concentration at 60 min", "setting": "Swiss albino, mouse, frontal cortex, ip, 0.625 mg/kg, 60 min, read-out: Concentration, frontal cortex (Mean)", "value": 66, "unit": "ng/mL"}, {"measurement": "concentration at 60 min", "setting": "Swiss albino, mouse, frontal cortex, ip, 0.625 mg/kg, 60 min, read-out: Concentration, frontal cortex (individual animals)", "value": 56.3, "unit": "ng/mL"}, {"measurement": "concentration at 120 min", "setting": "Swiss albino, mouse, frontal cortex, ip, 0.625 mg/kg, 120 min, read-out: Concentration, frontal cortex (Mean)", "value": 27.5, "unit": "ng/mL"}, {"measurement": "concentration at 120 min", "setting": "Swiss albino, mouse, frontal cortex, ip, 0.625 mg/kg, 120 min, read-out: Concentration, frontal cortex (individual animals)", "value": 22.2, "unit": "ng/mL"}, {"measurement": "concentration at 240 min", "setting": "Swiss albino, mouse, frontal cortex, ip, 0.625 mg/kg, 240 min, read-out: Concentration, frontal cortex (Mean)", "value": 23.3, "unit": "ng/mL"}, {"measurement": "concentration at 240 min", "setting": "Swiss albino, mouse, frontal cortex, ip, 0.625 mg/kg, 240 min, read-out: Concentration, frontal cortex (individual animals)", "value": 20.8, "unit": "ng/mL"}, {"measurement": "concentration at 480 min", "setting": "[1]", "value": 14.6, "unit": "ng/mL"}, {"measurement": "concentration at 480 min", "setting": "[2]", "value": 18.6, "unit": "ng/mL"}, {"measurement": "Cmax", "setting": "Swiss albino, mouse, frontal cortex, ip, 0.625 mg/kg, read-out: Cmax, frontal cortex", "value": 306, "unit": "ng/g"}, {"measurement": "Tmax", "setting": "Swiss albino, mouse, frontal cortex, ip, 0.625 mg/kg, read-out: tmax, frontal cortex (converted)", "value": 5, "unit": "min"}, {"measurement": "Kp", "setting": "Swiss albino, mouse, hippocampus, ip, read-out: Brain structure-to-plasma concentration ratio, hippocampus (H/P)", "value": 11.9}, {"measurement": "AUC(0-t)", "setting": "Swiss albino, mouse, hippocampus, ip, read-out: AUC0→t, hippocampus (converted)", "value": 210, "unit": "ng·h/mL"}, {"measurement": "MRT", "setting": "Swiss albino, mouse, hippocampus, ip, read-out: MRT, hippocampus (converted)", "value": 1.19, "unit": "h"}, {"measurement": "concentration at 5 min", "setting": "Swiss albino, mouse, hippocampus, ip, 0.625 mg/kg, read-out: Concentration, hippocampus (Mean)", "value": 191, "unit": "ng/mL"}]}]}
